Measured values: patent publication US20250101039A1, “RIFAMYCIN DERIVATIVES FOR THE TREATMENT OF DISEASES” (priority 2022, published 2025)
≈ marks a conversion by molar mass, not a printed value. Where two headings read alike, the source gives them in different places.

Legend:
[1] = tested on: Enterococcus faecalis (strain ATCC 51575); assay: MIC by broth microdilution, E. faecalis; format: cell-based; settings: for MIC: Enterococcus faecalis
[2] = tested on: A. baumannii RpoB H535C; assay: microbe, parasite or virus in culture; format: cell-based, Acinetobacter baumannii; settings: for MIC: Acinetobacter baumannii, RPOBH535C, 20 h; for A. baumannii MIC, RpoB H535C: Table 4, RPMI + FCS
[3] = tested on: Enterococcus faecium (strain NCTC 12204); assay: MIC by broth microdilution, E. faecium; format: cell-based; settings: for MIC: Enterococcus faecium
[4] = tested on: A. baumannii; assay: MIC by broth microdilution, A. baumannii (WT); format: cell-based, Acinetobacter baumannii; settings: for MIC: Acinetobacter baumannii
[5] = tested on: Staphylococcus epidermidis (strain ATCC 12228); assay: MIC by broth microdilution, S. epidermidis; format: cell-based; settings: for MIC: Staphylococcus epidermidis
[6] = tested on: A. baumannii RpoB H535Q/S521T; assay: microbe, parasite or virus in culture; format: cell-based, Acinetobacter baumannii; settings: Acinetobacter baumannii, RPOBH535Q/S521T
[7] = tested on: A. baumannii RpoB H535Q; assay: microbe, parasite or virus in culture; format: cell-based, Acinetobacter baumannii; settings: for MIC: Acinetobacter baumannii, RPOBH535Q, 20 h; for A. baumannii MIC, RpoB H535Q: Table 4, RPMI + FCS
[8] = tested on: A. baumannii RpoB L542F; assay: microbe, parasite or virus in culture; format: cell-based, Acinetobacter baumannii; settings: Acinetobacter baumannii, RPOBL542F, 20 h
[9] = tested on: H. influenzae (strain ATCC 49247); assay: MIC by broth microdilution, H. influenzae; format: cell-based, Hemophilus influenzae; settings: for MIC: Haemophilus influenzae
[10] = tested on: A. baumannii RpoB H535L; assay: microbe, parasite or virus in culture; format: cell-based, Acinetobacter baumannii; settings: for MIC: Acinetobacter baumannii, RPOBH535L, 20 h; for A. baumannii MIC, RpoB H535L: Table 4, RPMI + FCS
[11] = tested on: S. aureus; assay: MIC by broth microdilution, S. aureus; format: cell-based, Staphylococcus aureus; settings: cation adjusted Mueller Hinton broth, 35° C. 20 hours
[12] = tested on: M. tuberculosis (H37Rv strain ATCC 27294); format: cell-based, Mycobacterium tuberculosis
[13] = tested on: M. abscessus (strain ATCC 19977); assay: MIC by broth microdilution, M. abscessus; format: cell-based, Mycobacterium abscessus; settings: strain ATCC 19977, Middlebrook 7H9 broth + ADC
[14] = tested on: S. pneumoniae (strain ATCC 49619); assay: MIC by broth microdilution, S. pneumoniae; format: cell-based, Streptococcus pneumoniae; settings: strain ATCC 49619, cation adjusted Mueller Hinton broth + 5% laked horse blood
[15] = tested on: M. smegmatis (strain ATCC 700084); assay: MIC, M. smegmatis (BacTiter-Glo); format: cell-based, Mycobacterium smegmatis; settings: strain ATCC 700084, Middlebrook 7H9 + ADC, 90% growth inhibition, 20 hours
[16] = tested on: S. pyogenes (strain IHMA 1117021); assay: MIC by broth microdilution, S. pyogenes; format: cell-based, Streptococcus pyogenes; settings: strain IHMA 1117021, cation adjusted Mueller Hinton broth + 5% laked horse blood
[17] = read-out: A. baumannii MIC, RpoB H535C, Table 4, RPMI + FCS
[18] = read-out: MIC, RpoB mutation H535C, Table 5 part 2 c1, 1st H535C isolate, RPMI + 10% FCS
[19] = read-out: MIC, RpoB mutation H535C, Table 5 part 2 c2, 2nd H535C isolate, RPMI + 10% FCS
[20] = read-out: MIC, RpoB mutation H535C, Table 5 part 2 c3, 3rd H535C isolate, RPMI + 10% FCS
[21] = read-out: MIC, RpoB mutation H535C, Table 5 part 2 c4, 4th H535C isolate, RPMI + 10% FCS
[22] = RPMI medium supplemented with 10% FCS, 35° C. 20 hours
[23] = read-out: MIC, RpoB mutation H535Q/S521T, Table 5 part 1 c5, 1st H535Q/S521T isolate, RPMI + 10% FCS
[24] = read-out: MIC, RpoB mutation H535Q/S521T, Table 5 part 1 c6, 2nd H535Q/S521T isolate, RPMI + 10% FCS
[25] = read-out: A. baumannii MIC, RpoB H535Q, Table 4, RPMI + FCS
[26] = read-out: MIC, RpoB mutation H535Q, Table 5 part 1 c2, 1st H535Q isolate, RPMI + 10% FCS
[27] = read-out: MIC, RpoB mutation H535Q, Table 5 part 1 c3, 2nd H535Q isolate, RPMI + 10% FCS
[28] = read-out: MIC, RpoB mutation H535Q, Table 5 part 1 c4, 3rd H535Q isolate, RPMI + 10% FCS
[29] = read-out: MIC, RpoB mutation L542F, Table 5 part 3 c2, 1st L542F isolate, RPMI + 10% FCS
[30] = read-out: MIC, RpoB mutation L542F, Table 5 part 3 c3, 2nd L542F isolate, RPMI + 10% FCS
[31] = read-out: A. baumannii MIC, RpoB H535L, Table 4, RPMI + FCS
[32] = read-out: MIC, RpoB mutation H535L, Table 5 part 2 c5, 1st H535L isolate, RPMI + 10% FCS
[33] = read-out: MIC, RpoB mutation H535L, Table 5 part 2 c6, 2nd H535L isolate, RPMI + 10% FCS
[34] = read-out: MIC, RpoB mutation H535L, Table 5 part 3 c1, 3rd H535L isolate, RPMI + 10% FCS
[35] = read-out: MIC, RpoB mutation H535L, Table 5 part 3 c6, 4th H535L isolate, RPMI + 10% FCS
[36] = read-out: MIC, RpoB mutation H535L, Table 5 part 3 c7, 5th H535L isolate, RPMI + 10% FCS
[37] = strain ATCC 51575, cation adjusted Mueller Hinton broth
[38] = strain NCTC 12204, cation adjusted Mueller Hinton broth
[39] = strain ATCC 12228, cation adjusted Mueller Hinton broth
[40] = strain ATCC 49247, Hemophilus test medium broth

Compound | MIC [2, 17] [µg/mL] | MIC [2, 18] [µg/mL] | MIC [2, 19] [µg/mL] | MIC [2, 20] [µg/mL] | MIC [2, 21] [µg/mL] | MIC A. baumannii [4, 22] [ng/mL] | MIC [6, 23] [µg/mL] | MIC [6, 24] [µg/mL] | MIC [7, 25] [µg/mL] | MIC [7, 26] [µg/mL] | MIC [7, 27] [µg/mL] | MIC [7, 28] [µg/mL] | MIC [8, 29] [µg/mL] | MIC [8, 30] [µg/mL] | MIC [10, 31] [µg/mL] | MIC [10, 32] [µg/mL] | MIC [10, 33] [µg/mL] | MIC [10, 34] [µg/mL] | MIC [10, 35] [µg/mL] | MIC S. aureus [11] [µg/mL] | further results
CO[C@H]1/C=C/O[C@@]2(C)Oc3c(C)c(O)c4c(c3C2=O)C2=NC3(CC5CCC(C3)N5C)NC2=C(NC(=O)/C(C)=C\C=C\[C@H](C)[C@H](O)[C@@H](C)[C@@H](O)[C@@H](C)[C@H](OC(C)=O)[C@@H]1C)C4=O (single isomer, unassigned) [Compound 13B] | ≤ 0.002 | ≤ 0.002 | 0.002 | 0.004 | 0.016 | < 2 | 0.5 | 1 | ≤ 0.002 | ≤ 0.002 | 4 | 2 | 0.002 | 0.125 | 0.03 | 0.004 | ≤ 0.002 | 0.25 | 0.03 | 0.016 (≈ 0.0193 µM) | MIC ([1]; ATCC51575, read-out: MIC E. faecalis): 0.5 µg/mL (≈ 0.602 µM); MIC ([3]; NCTC12204, read-out: MIC E. faecium): 0.125 µg/mL (≈ 0.15 µM); MIC ([4]; 20 h, read-out: A. baumannii MIC, WT, Table 4, RPMI + FCS): ≤ 2 ng/mL; MIC ([5]; ATCC12228, read-out: MIC S. epidermidis): < 2 ng/mL; MIC ([9]; ATCC49247, read-out: MIC H. influenzae): 0.125 µg/mL (≈ 0.15 µM); MIC [10, 36]: 0.03 µg/mL
CCCN1C2CCC1CC1(C2)N=C2C(=C3NC(=O)/C(C)=C\C=C\[C@H](C)[C@H](O)[C@@H](C)[C@@H](O)[C@@H](C)[C@H](OC(C)=O)[C@H](C)[C@@H](OC)/C=C/O[C@@]4(C)Oc5c(C)c(O)c(c2c5C4=O)C3=O)N1 (single isomer, unassigned) [Compound 20B] |  |  |  |  |  | < 2 |  |  |  |  |  |  |  |  |  |  |  |  |  | 0.004 (≈ 0.00466 µM) | MIC E. faecalis [1, 37]: 1 µg/mL (≈ 1.16 µM); A. baumannii MIC, RpoB H535C [2]: 0.008 mg/L; MIC M. tuberculosis [12]: 0.01 µg/mL (≈ 0.0116 µM); MIC M. abscessus [13]: 8 µg/mL; MIC E. faecium [3, 38]: 0.5 µg/mL (≈ 0.582 µM); A. baumannii MIC, WT ([4]; Table 4, RPMI + FCS): ≤2 ng/mL; MIC S. pneumoniae [14]: < 2 ng/mL; MIC M. smegmatis [15]: 0.29 µg/mL; MIC S. epidermidis [5, 39]: < 2 ng/mL; MIC S. pyogenes [16]: < 2 ng/mL; A. baumannii MIC, RpoB H535Q [7]: 0.004 mg/L; MIC H. influenzae [9, 40]: 0.25 µg/mL (≈ 0.291 µM); A. baumannii MIC, RpoB H535L [10]: 0.5 mg/L
CO[C@H]1/C=C/O[C@@]2(C)Oc3c(C)c(O)c4c(c3C2=O)C2=NC3(NC2=C(NC(=O)/C(C)=C\C=C\[C@H](C)[C@H](O)[C@@H](C)[C@@H](O)[C@@H](C)[C@H](OC(C)=O)[C@@H]1C)C4=O)C1CN(C)CC3CN(C)C1 (stereo partly shown) [Compound 18] |  |  |  |  |  | 8 (≈ 0.0093 µM) |  |  |  |  |  |  |  |  |  |  |  |  |  | 0.016 (≈ 0.0186 µM) | MIC E. faecalis [1, 37]: 2 µg/mL (≈ 2.33 µM); A. baumannii MIC, RpoB H535C [2]: 0.25 mg/L; MIC M. tuberculosis [12]: 0.01 µg/mL (≈ 0.0116 µM); MIC M. abscessus [13]: 32 µg/mL; MIC E. faecium [3, 38]: 0.125 µg/mL (≈ 0.145 µM); A. baumannii MIC, WT ([4]; Table 4, RPMI + FCS): 8 ng/mL; MIC S. pneumoniae [14]: < 2 ng/mL; MIC M. smegmatis [15]: 1.11 µg/mL; MIC S. epidermidis [5, 39]: < 2 ng/mL; MIC S. pyogenes [16]: < 2 ng/mL; A. baumannii MIC, RpoB H535Q [7]: 0.03 mg/L; MIC H. influenzae [9, 40]: 0.125 µg/mL (≈ 0.145 µM); A. baumannii MIC, RpoB H535L [10]: 4 mg/L
CO[C@H]1/C=C/O[C@@]2(C)Oc3c(C)c(O)c4c(c3C2=O)C2=NC3(CCN(CC(C)C)CC3)NC2=C(NC(=O)/C(C)=C\C=C\[C@H](C)[C@H](O)[C@@H](C)[C@@H](O)[C@@H](C)[C@H](OC(C)=O)[C@@H]1C)C4=O [Rifabutin, reference compound] | 0.03 | 0.06 | 0.016 | 0.25 | > 32 |  | 32 | 16 | 0.004 | 0.03 | > 32 | 16 | 0.004 | 1 | > 32 | 0.06 | 0.008 | > 32 | > 32 |  | MIC ([1]; ATCC51575, strain ATCC 51575, cation adjusted Mueller Hinton broth, read-out: MIC E. faecalis): 4 µg/mL (≈ 4.72 µM); MIC ([3]; NCTC12204, strain NCTC 12204, cation adjusted Mueller Hinton broth, read-out: MIC E. faecium): 0.125 µg/mL (≈ 0.148 µM); MIC ([4]; 20 h, Table 4, RPMI + FCS, read-out: A. baumannii MIC, WT): ≤ 2 ng/mL; MIC ([4]; read-out: MIC A. baumannii, RPMI medium supplemented with 10% FCS, 35° C. 20 hours): < 2 ng/mL; MIC ([5]; ATCC12228, strain ATCC 12228, cation adjusted Mueller Hinton broth, read-out: MIC S. epidermidis): 4 ng/mL (≈ 0.00472 µM); MIC ([9]; ATCC49247, strain ATCC 49247, Hemophilus test medium broth, read-out: MIC H. influenzae): 0.5 µg/mL (≈ 0.59 µM); MIC [10, 36]: > 32 µg/mL; MIC ([11]; Staphylococcus aureus, read-out: MIC S. aureus): 0.016 µg/mL (≈ 0.0189 µM)
